Experimental data as given in ChEMBL document CHEMBL3885881, “DrugMatrix”.

Organism: Rattus norvegicus
Experiment: DrugMatrix - Regimen: Daily Repeat
Assay type: toxicity, organism-based, Sprague-Dawley
Parameters: regimen Daily Repeat, gender Male, age 6-8 weeks
Conditions: in vivo, po, route oral GAVAGE, vehicle 100 % WATER; for ABSOLUTE BASOPHIL / ABSOLUTE EOSINOPHIL / ABSOLUTE LYMPHOCYTE / ABSOLUTE MONOCYTE / ABSOLUTE SEGMENTED NEUTROPHIL / BASOPHIL / EOSINOPHIL / ERYTHROCYTE COUNT / HEMATOCRIT / HEMOGLOBIN / LEUKOCYTE COUNT / LYMPHOCYTE / MEAN CORPUSCULAR HEMOGLOBIN / MEAN CORPUSCULAR HEMOGLOBIN CONCENTRATION / MEAN CORPUSCULAR VOLUME / MONOCYTE / NEUTROPHIL / NUCLEATED RED BLOOD CELLS / PLATELET COUNT: tissue Blood; for ALANINE AMINOTRANSFERASE / ALBUMIN / ALKALINE PHOSPHATASE / ASPARTATE AMINOTRANSFERASE / BLOOD UREA NITROGEN / CARBON DIOXIDE / CHLORIDE / CHOLESTEROL / CREATINE PHOSPHOKINASE / CREATININE / GLUCOSE / LACTATE DEHYDROGENASE / LIPASE / PHOSPHORUS / POTASSIUM / SODIUM / TOTAL BILIRUBIN / TOTAL PROTEIN / URIC ACID: tissue Plasma
[1] = 0 mg/kg, 72 h, dose level Control, time 3 day
[2] = 0 mg/kg, 120 h, dose level Control, time 5 day
[3] = 2 mg/kg, 72 h, dose level Low, time 3 day

CC(C)(C)c1ccc(C(=O)CCCN2CCC(OC(c3ccccc3)c3ccccc3)CC2)cc1 [EBASTINE]
ABSOLUTE BASOPHIL [1]: 0 CELLS/uL | ABSOLUTE EOSINOPHIL [1]: 123.17 CELLS/uL | ABSOLUTE LYMPHOCYTE [1]: 12677.83 CELLS/uL | ABSOLUTE MONOCYTE [1]: 66.17 CELLS/uL | ABSOLUTE SEGMENTED NEUTROPHIL [1]: 1149.5 CELLS/uL | BASOPHIL [1]: 0% | EOSINOPHIL [1]: 0.83% | ERYTHROCYTE COUNT [1]: 5.26 x10E6/uL | HEMATOCRIT [1]: 33.07% | HEMOGLOBIN [1]: 13.43 G/DL | LEUKOCYTE COUNT [1]: 14.02 x10E3/uL | LYMPHOCYTE [1]: 90.17% | MEAN CORPUSCULAR HEMOGLOBIN [1]: 25.62 pg | MEAN CORPUSCULAR HEMOGLOBIN CONCENTRATION [1]: 40.65 G/DL | MEAN CORPUSCULAR VOLUME [1]: 63 fL | MONOCYTE [1]: 0.5% | NEUTROPHIL [1]: 8.5% | NUCLEATED RED BLOOD CELLS [1]: 0.17 /100WBC | PLATELET COUNT [1]: 1142.83 x10E3/uL | ALANINE AMINOTRANSFERASE [1]: 45.17 u/L | ALBUMIN [1]: 3.78 G/DL | ALKALINE PHOSPHATASE [1]: 340.17 u/L | ASPARTATE AMINOTRANSFERASE [1]: 77.33 u/L | BLOOD UREA NITROGEN [1]: 14.67 mg/dL | CARBON DIOXIDE [1]: 28.67 mmol/L | CHLORIDE [1]: 101.17 MEQ/L | CHOLESTEROL [1]: 77.67 mg/dL | CREATINE PHOSPHOKINASE [1]: 263.67 u/L | CREATININE [1]: 0.15 mg/dL | GLUCOSE [1]: 169.33 mg/dL | LACTATE DEHYDROGENASE [1]: 230 u/L | LIPASE [1]: 9.67 u/L | PHOSPHORUS [1]: 11.8 mg/dL | POTASSIUM [1]: 5.91 MEQ/L | SODIUM [1]: 142.88 MEQ/L | TOTAL BILIRUBIN [1]: 0.22 mg/dL | TOTAL PROTEIN [1]: 5.7 G/DL | URIC ACID [1]: 1.35 mg/dL | ABSOLUTE BASOPHIL [2]: 0 CELLS/uL | ABSOLUTE EOSINOPHIL [2]: 125 CELLS/uL | ABSOLUTE LYMPHOCYTE [2]: 13809 CELLS/uL | ABSOLUTE MONOCYTE [2]: 351 CELLS/uL | ABSOLUTE SEGMENTED NEUTROPHIL [2]: 1581.67 CELLS/uL | BASOPHIL [2]: 0% | EOSINOPHIL [2]: 0.67% | ERYTHROCYTE COUNT [2]: 5.53 x10E6/uL | HEMATOCRIT [2]: 34.83% | HEMOGLOBIN [2]: 13.9 G/DL | LEUKOCYTE COUNT [2]: 15.87 x10E3/uL | LYMPHOCYTE [2]: 87.5% | MEAN CORPUSCULAR HEMOGLOBIN [2]: 25.25 pg | MEAN CORPUSCULAR HEMOGLOBIN CONCENTRATION [2]: 40.08 G/DL | MEAN CORPUSCULAR VOLUME [2]: 63.05 fL | MONOCYTE [2]: 2.17% | NEUTROPHIL [2]: 9.67% | NUCLEATED RED BLOOD CELLS [2]: 0 /100WBC | PLATELET COUNT [2]: 1044 x10E3/uL | ALANINE AMINOTRANSFERASE [2]: 50.67 u/L | ALBUMIN [2]: 4.33 G/DL | ALKALINE PHOSPHATASE [2]: 395 u/L | ASPARTATE AMINOTRANSFERASE [2]: 86 u/L | BLOOD UREA NITROGEN [2]: 15.33 mg/dL | CARBON DIOXIDE [2]: 29.33 mmol/L | CHLORIDE [2]: 101.5 MEQ/L | CHOLESTEROL [2]: 71.33 mg/dL | CREATINE PHOSPHOKINASE [2]: 323.17 u/L | CREATININE [2]: 0.18 mg/dL | GLUCOSE [2]: 145.67 mg/dL | LACTATE DEHYDROGENASE [2]: 389.5 u/L | LIPASE [2]: 9.83 u/L | PHOSPHORUS [2]: 11.35 mg/dL | POTASSIUM [2]: 6.39 MEQ/L | SODIUM [2]: 142.77 MEQ/L | TOTAL BILIRUBIN [2]: 0.18 mg/dL | TOTAL PROTEIN [2]: 6.1 G/DL | URIC ACID [2]: 1.52 mg/dL | ABSOLUTE BASOPHIL [3]: 0 CELLS/uL | ABSOLUTE EOSINOPHIL [3]: 62.33 CELLS/uL | ABSOLUTE LYMPHOCYTE [3]: 12860.33 CELLS/uL | ABSOLUTE MONOCYTE [3]: 62.33 CELLS/uL | ABSOLUTE SEGMENTED NEUTROPHIL [3]: 1348.33 CELLS/uL | BASOPHIL [3]: 0% | EOSINOPHIL [3]: 0.33% | ERYTHROCYTE COUNT [3]: 5.22 x10E6/uL | HEMATOCRIT [3]: 34.2% | HEMOGLOBIN [3]: 13.67 G/DL | LEUKOCYTE COUNT [3]: 14.33 x10E3/uL | LYMPHOCYTE [3]: 89.67% | MEAN CORPUSCULAR HEMOGLOBIN [3]: 26.2 pg | MEAN CORPUSCULAR HEMOGLOBIN CONCENTRATION [3]: 40 G/DL | MEAN CORPUSCULAR VOLUME [3]: 65.5 fL | MONOCYTE [3]: 0.33% | NEUTROPHIL [3]: 9.67% | NUCLEATED RED BLOOD CELLS [3]: 0 /100WBC | PLATELET COUNT [3]: 1183.33 x10E3/uL | ALANINE AMINOTRANSFERASE [3]: 47.67 u/L | ALBUMIN [3]: 3.87 G/DL | ALKALINE PHOSPHATASE [3]: 322 u/L | ASPARTATE AMINOTRANSFERASE [3]: 75.33 u/L | BLOOD UREA NITROGEN [3]: 14.33 mg/dL | CARBON DIOXIDE [3]: 32.67 mmol/L | CHLORIDE [3]: 99.67 MEQ/L | CHOLESTEROL [3]: 75.67 mg/dL | CREATINE PHOSPHOKINASE [3]: 258.67 u/L | CREATININE [3]: 0.13 mg/dL | GLUCOSE [3]: 151 mg/dL | LACTATE DEHYDROGENASE [3]: 188 u/L | LIPASE [3]: 10 u/L | PHOSPHORUS [3]: 11.23 mg/dL | POTASSIUM [3]: 6.55 MEQ/L | SODIUM [3]: 141.57 MEQ/L | TOTAL BILIRUBIN [3]: 0.2 mg/dL | TOTAL PROTEIN [3]: 5.63 G/DL | URIC ACID [3]: 1.3 mg/dL
